# Measurements published in BindingDB's records for doi:10.1021/jm00100a021 (University of Illinois, 1992).
# Columns and labels:
# Serine protease 1 = target: T1, Serine protease 1 (Bos taurus, UniProt P00760); experiment: ChEBML_212371
# T1 sequence (P00760 whole entry): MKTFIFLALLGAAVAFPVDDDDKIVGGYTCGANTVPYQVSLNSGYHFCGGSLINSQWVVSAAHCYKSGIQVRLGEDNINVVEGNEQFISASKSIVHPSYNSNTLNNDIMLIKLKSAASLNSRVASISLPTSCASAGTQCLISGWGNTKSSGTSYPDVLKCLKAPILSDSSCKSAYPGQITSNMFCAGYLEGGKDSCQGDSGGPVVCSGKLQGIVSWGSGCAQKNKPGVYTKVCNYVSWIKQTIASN
# Source text: […] rate constant against trypsin
# [1] = target: Urokinase-type plasminogen activator (Homo sapiens, UniProt P00749); experiment: ChEBML_213149
# Source text: […] rate constant against Urokinase-type plasminogen activator
structure (smiles),measurement,setting,value
N=C(N)Nc1ccc(C2CC(=O)O/C(=C/I)C2)cc1 (stereo not drawn),koff,Serine protease 1,0.000333 s⁻¹
C=C1CC(c2ccc(N=C(N)N)cc2)CC(=O)O1 (stereo not drawn),koff,Serine protease 1,3.3e-05 s⁻¹
same,koff,[1],0.00015 s⁻¹
